We go through 57 molecules from patent US12577217B2, “15-PGDH inhibitor” (KYORIN Pharmaceutical Co., Ltd., priority 2019, dated 2026).

In the test the target is T1, recombinant human 15-PGDH (Homo sapiens, UniProt P15428).
T1 construct: purchased R&D Systems
T1 sequence (P15428 1-266): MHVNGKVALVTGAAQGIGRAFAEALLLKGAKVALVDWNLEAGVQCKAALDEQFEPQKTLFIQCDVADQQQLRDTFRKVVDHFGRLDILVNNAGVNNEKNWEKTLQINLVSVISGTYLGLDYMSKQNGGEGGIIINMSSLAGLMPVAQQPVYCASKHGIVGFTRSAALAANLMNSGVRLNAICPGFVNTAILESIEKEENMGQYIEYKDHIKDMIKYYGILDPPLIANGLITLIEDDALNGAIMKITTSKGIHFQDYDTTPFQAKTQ
As to the kind of experiment: 15-PGDH enzyme inhibition test. It is filed as biochemical. Conditions: 4 nM recombinant human 15-PGDH, 30 μM PGE2, 1 mM NAD+, 60 minutes after starting the reaction; read-out: IC50 Value. Put shortly:
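Fluorescence (excitation 340 nm, emission 440 nm) measured 60 min after adding 1 mM NAD+ and 30 μM PGE2 to 4 nM recombinant human 15-PGDH, which had stood 12 min at room temperature with compound in pH 8.0 Tris-HCl buffer. Concentration-response curves yield IC50, binned into potency categories.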

Each structure is given as a SMILES string.

In general, IC50 refers to the concentration that inhibits the measured activity by half. For the molecule `COCn1nc2cc(N3CCCc4cc(C(=O)N5CC[C@@H](C)C5)cnc43)ccn2c1=O` [Example 8-121], the IC50 is less than 10 nM. The value for `COC(=O)c1ccc(N2CCN(c3ccn4c(=O)n(C)nc4c3)c3ncc(C(=O)N4CCC(F)(F)CC4)cc32)cc1` [Example 30-3] was 10 to 100 nM. The value for `CCOCCN1Cc2cc(N3CCCc4cc(C(=O)N5CCCCC5)cnc43)ncc2C1=O` [Example 1-73] was 10 to 100 nM; that for `CCN1Cc2cc(N3CCCc4cc(C(=O)N5CCC[C@@H](CF)C5)cnc43)ccc2C1=O` [Example 8-91] was less than 10 nM; that for `COC(=O)C1CCCN(C(=O)c2cnc3c(c2)OCCN3c2ccn3c(=O)n(C)nc3c2)C1` (stereo not drawn) [Example 8-36] was less than 10 nM. With `CCN1Cc2cc(N3CCCc4cc(C(=O)N5CCC[C@@H](C(F)(F)F)C5)cnc43)ccc2C1=O` [Example 8-87] the figure was less than 10 nM; with `Cn1nc2cc(N3CCCc4cc(C(=O)N5CCC5)cnc43)ccn2c1=O` [Example 8-122], less than 10 nM. Turning to `NC(=O)c1ccc(N2CCOc3cc(C(=O)N4CCCCC4)cnc32)cn1` [Example 6-21], the IC50 was less than 10 nM. The value for `CN1C(=O)C(C)(C)c2cc(N3CCOc4cc(C(=O)N5CCCCC5)cnc43)ccc21` [Example 1-249] was more than 100 nM; that for `CCOCCn1nc2cc(N3CCOc4cc(C(=O)N5CCC(F)(F)CC5)cnc43)ccn2c1=O` [Example 1-48] was less than 10 nM. The value for `CCN1Cc2cc(N3CCCc4cc(C(=O)N5CCC[C@H](CF)C5)cnc43)ccc2C1=O` [Example 8-92] was less than 10 nM; that for `Cn1nc2cc(N3CCOCc4cc(C(=O)N5CCCCC5)cnc43)ccn2c1=O` [Example 1-108] was 10 to 100 nM. The value for `C[C@@H]1CCCCN1C(=O)c1cnc2c(c1)CCCN2c1ccn2c(=O)n(C)nc2c1` [Example 8-132] was less than 10 nM; that for `CNC(=O)c1ccc(N2CCOc3cc(C(=O)N4CCC(F)(F)CC4)ccc32)cc1OC` [Example 6-1, 4-(7-(4,4-Difluoropiperidine-1-carbonyl)-2,3-dihydro-4H-benzo[b][1,4]oxazin-4-yl)-2-methoxy-N-methylbenzamide] was less than 10 nM; that for `CCOCn1nc2cc(N3CCCc4cc(C(=O)N5CCC(F)(F)CC5)cnc43)ccn2c1=O` [Example 1-77] was less than 10 nM. Regarding `O=C(c1cnc2c(c1)OCCN2c1cccc(Cl)c1)N1CCCCC1` [Example 1-253], the IC50 fell in the range of 10 to 100 nM. The value for `O=C(c1cnc2c(c1)OCCN2c1ccncc1)N1CCCCC1` [Example 1-233] was 10 to 100 nM; that for `CN1Cc2cc(N3CCOc4cc(C(=O)N5CCC(F)(F)CC5)ccc43)ccc2C1=O` [Example 1-149] was less than 10 nM; that for `Cn1ncc2cc(N3CCCc4cc(C(=O)N5CCCCC5)cnc43)cnc2c1=O` [Example 1-194] was less than 10 nM.

Take `Cn1nc2cc(N3CCCc4cc(C(=O)N5CCC(F)CC5)cnc43)ccn2c1=O` [Example 8-140]: the IC50 is less than 10 nM. With `C[C@@H]1C[C@H](C)CN(C(=O)c2cnc3c(c2)OCCN3c2ccn3c(=O)n(C)nc3c2)C1` [Example 8-41], the IC50 is less than 10 nM. The value for `O=C(O)c1ccc(N2CCCCOc3cc(C(=O)N4CCCCC4)ccc32)cc1` [Example 2-6] was less than 10 nM.

In the case of `O=C(c1cnc2c(c1)OCCN2c1ccccn1)N1CCCCC1` [Example 1-235], the IC50 is more than 100 nM. For the molecule `COCCn1nc2cc(N3CCOc4cc(C(=O)N5CCC(F)(F)CC5)cnc43)ccn2c1=O` [Example 1-47], the IC50 was less than 10 nM.

For the molecule `Cn1nc2cc(N3CCOc4cc(C(=O)N5CCCC6(C5)CC(F)(F)C6)cnc43)ccn2c1=O` [Example 8-95], the IC50 lay in the range of 10 to 100 nM. With `Cn1nc2c(Cl)c(N3CCOc4cc(C(=O)N5CCCCC5)cnc43)ccn2c1=O` [Example 1-29] the figure was less than 10 nM. Take `CC(C)(O)c1ccc(N2CCOc3c2ccc(C(=O)N2CCCCC2)c3Cl)cc1` [Example 10-2]: the IC50 was less than 10 nM. As for `CNC(=O)c1cn(C)c2cc(N3CCOc4cc(C(=O)N5CCCCC5)cnc43)ccc12` [Example 6-10], the IC50 was more than 100 nM.

Consider `CC(O)CCN(C)C(=O)c1cnc2c(c1)OCCN2c1ccn2c(=O)n(C)nc2c1` (stereo not drawn) [Example 8-181], for which the IC50 is 10 to 100 nM. The value for `Cn1nc2cc(N3CCOc4cc(C(=O)N5CCC[C@@H](CF)C5)cnc43)ccn2c1=O` [Example 8-66] was less than 10 nM; that for `COCCOCCn1nc2cc(N3CCCc4cc(C(=O)N5CCC[C@@H](CF)C5)cnc43)ccn2c1=O` [Example 1-125] was less than 10 nM.

Consider `COCCNC(=O)c1ccc(N2CCCc3cc(C(=O)N4CCC(F)(F)CC4)cnc32)cc1F` [Example 1-176], for which the IC50 was less than 10 nM. With `O=C(O)c1ccc(N2CCOc3cc(C(=O)N4CCCCC4)cnc32)cc1` [Example 4-2] the figure was less than 10 nM; with `Cn1nc2cc(N3CCOc4cc(C(=O)N5CCC[C@@H](O)C5)cnc43)ccn2c1=O` [Example 8-33], less than 10 nM; with `O=C(c1cnc2c(c1)OCCN2c1ccn2c(=O)n(C3CC3)nc2c1)N1CCCCC1` [Example 26-2], less than 10 nM.

Regarding `CNC(=O)C1CCC(N2CCOc3cc(C(=O)N4CCCCC4)ccc32)CC1` (stereo not drawn) [Example 6-16], the IC50 was 10 to 100 nM. With `CCN1Cc2cc(N3CCCc4cc(C(=O)N5CCCC5)cnc43)ccc2C1=O` [Example 8-69] the figure was less than 10 nM; with `Cn1nc2cc(N3CCCc4cc(C(=O)N5CCC[C@H](F)C5)cnc43)ccn2c1=O` [Example 8-138], less than 10 nM. On to `Cn1nc2cc(N3CCCc4cc(C(=O)N5CCCCCC5)cnc43)ccn2c1=O` [Example 8-124], for which the IC50 is less than 10 nM. With `Cn1nc2cc(N3CCCc4cc(C(=O)N5CCC[C@H](CF)C5)cnc43)ccn2c1=O` [Example 1-112] the figure was less than 10 nM.

With `O=C(c1cnc2c(c1)OCCN2c1ccc2c(=O)[nH]ccc2c1)N1CCC(F)(F)CC1` [Example 1-128], the IC50 was less than 10 nM.

With `Cn1cnc2cc(N3CCOc4cc(C(=O)N5CCCCC5)cnc43)ccc2c1=O` [Example 1-163], the IC50 is less than 10 nM.

Turning to `Cn1nc2cc(N3CCOc4cc(C(=O)N5CCC(C)(C)C5)cnc43)ccn2c1=O` [Example 8-100], the IC50 was less than 10 nM. With `Cn1nc2cc(N3CCOc4cc(C(=O)N5CCCCC5(C)C)cnc43)ccn2c1=O` [Example 8-172] the figure was more than 100 nM; with `Cn1ncc2cc(N3CCCc4cc(C(=O)N5CCC(F)(F)CC5)cnc43)ccc2c1=O` [Example 1-189], less than 10 nM. The value for `COCn1nc2cc(N3CCCc4cc(C(=O)N5CCC[C@H](C(F)F)C5)cnc43)ccn2c1=O` [Example 8-118] was less than 10 nM; that for `O=C(c1cnc2c(c1)OCCN2c1ccn2c(=O)n(CC(F)(F)F)nc2c1)N1CCCCC1` [Example 27-3] was less than 10 nM. With `O=C(c1cnc2c(c1)CCCN2c1ccn2c(=O)n(CC3COC3)nc2c1)N1CCCCC1` [Example 1-58] the figure was less than 10 nM; with `Cn1ncc2cc(N3CCCc4cc(C(=O)N5CCCCC5)cnc43)ccc2c1=O` [Example 1-188], less than 10 nM; with `COCn1nc2cc(N3CCCc4cc(C(=O)N5CCC[C@@H](CF)C5)cnc43)ccn2c1=O` [Example 1-121], less than 10 nM. On to `CNC(=O)c1ccc(N2CCOc3cc(C(=O)N4CCCCC4)cnc32)cc1` [Example 6-18], for which the 50% inhibitory concentration (IC50) is less than 10 nM. The value for `CCN1Cc2cc(N3CCCc4cc(C(=O)N5CCC5)cnc43)ccc2C1=O` [Example 8-68] was less than 10 nM. With `CN1CCN(c2ccn3c(=O)n(C)nc3c2)c2ncc(C(=O)N3CCC(F)(F)CC3)cc21` [Example 29-4] the figure was less than 10 nM. The value for `O=C(c1cnc2c(c1)OCCN2c1ccn2cnnc2c1)N1CCCCC1` [Example 1-105] was less than 10 nM; that for `O=C(c1cnc2c(c1)OCCN2c1ccc(F)c(F)c1)N1CCCCC1` [Example 1-239] was 10 to 100 nM. For `Cn1nc2cc(N3CCOc4cc(C(=O)N5CC(F)(F)C5)cnc43)ccn2c1=O` [Example 8-30], the IC50 was less than 10 nM.

For the molecule `CN1Cc2cc(N3CCCc4cc(C(=O)N5CCC(F)(F)CC5)cnc43)ncc2C1=O` [Example 1-85], the IC50 lay within 10 to 100 nM.
